According to ChEMBL document CHEMBL4043108, “Identification of galiellalactone-based novel STAT3-selective inhibitors with cytotoxic activities against triple-negative breast cancer cell lines” (Bioorg Med Chem, 2017):
Calls of active or inactive are those of the source. The rule behind the calls is not given here.

What was measured:
MDA-MB-468 [1] = experiment: Cytotoxic activity against human MDA-MB-468 cells incubated for 24 hrs by MTT assay; format: functional, cell-based; conditions: MDA-MB-468, 24 h
BT-549 = experiment: Cytotoxic activity against human BT549 cells incubated for 24 hrs by MTT assay; format: functional, cell-based; conditions: BT-549, 24 h
[2] = Toxicity in human MDA-MB-468 cells assessed as cell viability at 10 uM incubated for 24 hrs by MTT assay (reference value: 100%); format: cell-based; conditions: read-out: Activity
MDA-MB-468 [3] = experiment: Effect on total STAT1 protein level in human MDA-MB-468 cells at 5 and 10 uM incubated for 4 hrs by Western blot; format: cell-based; conditions: mda-mb-468, 4 h
MDA-MB-468 [4] = experiment: Effect on total STAT3 protein level in human MDA-MB-468 cells at 5 and 10 uM incubated for 4 hrs by Western blot; format: cell-based; conditions: mda-mb-468, 4 h
[5] = target: Signal transducer and activator of transcription 3 (Homo sapiens) (UniProt P40763); experiment: Inhibition of STAT3 Tyr705 phosphorylation in human MDA-MB-468 cells at 5 and 10 uM incubated for 4 hrs by Western blot; format: cell-based
Sequence of Signal transducer and activator of transcription 3 (Homo sapiens) (P40763 whole entry): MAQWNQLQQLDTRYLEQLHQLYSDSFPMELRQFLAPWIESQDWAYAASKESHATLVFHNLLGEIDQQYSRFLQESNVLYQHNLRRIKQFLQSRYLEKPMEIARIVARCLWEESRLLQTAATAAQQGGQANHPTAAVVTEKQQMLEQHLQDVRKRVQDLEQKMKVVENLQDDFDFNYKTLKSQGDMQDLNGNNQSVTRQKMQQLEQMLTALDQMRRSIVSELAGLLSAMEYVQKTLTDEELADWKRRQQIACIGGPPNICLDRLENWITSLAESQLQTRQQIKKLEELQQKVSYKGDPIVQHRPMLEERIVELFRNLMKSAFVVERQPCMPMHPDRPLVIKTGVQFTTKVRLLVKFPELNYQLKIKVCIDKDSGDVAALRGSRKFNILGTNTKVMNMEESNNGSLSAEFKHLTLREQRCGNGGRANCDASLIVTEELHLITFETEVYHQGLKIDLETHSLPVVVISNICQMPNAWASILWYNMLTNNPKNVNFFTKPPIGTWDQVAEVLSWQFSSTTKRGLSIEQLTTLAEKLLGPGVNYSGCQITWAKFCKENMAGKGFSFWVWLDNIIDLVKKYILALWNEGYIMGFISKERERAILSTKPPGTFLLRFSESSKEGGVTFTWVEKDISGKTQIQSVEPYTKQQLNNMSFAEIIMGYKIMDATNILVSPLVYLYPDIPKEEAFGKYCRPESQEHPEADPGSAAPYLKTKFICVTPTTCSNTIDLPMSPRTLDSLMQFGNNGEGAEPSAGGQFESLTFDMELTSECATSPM

[6] = target: Signal transducer and activator of transcription 3 (Homo sapiens) (UniProt P40763); experiment: Inhibition of STAT3 Ser727 phosphorylation in human MDA-MB-468 cells at 5 and 10 uM incubated for 4 hrs by Western blot; format: cell-based
[7] = target: T1, Signal transducer and activator of transcription 1-alpha/beta (Homo sapiens) (UniProt P42224); experiment: Inhibition of STAT1 Tyr701 phosphorylation in human MDA-MB-468 cells at 5 and 10 uM incubated for 4 hrs by Western blot; format: cell-based
T1 sequence (whole entry): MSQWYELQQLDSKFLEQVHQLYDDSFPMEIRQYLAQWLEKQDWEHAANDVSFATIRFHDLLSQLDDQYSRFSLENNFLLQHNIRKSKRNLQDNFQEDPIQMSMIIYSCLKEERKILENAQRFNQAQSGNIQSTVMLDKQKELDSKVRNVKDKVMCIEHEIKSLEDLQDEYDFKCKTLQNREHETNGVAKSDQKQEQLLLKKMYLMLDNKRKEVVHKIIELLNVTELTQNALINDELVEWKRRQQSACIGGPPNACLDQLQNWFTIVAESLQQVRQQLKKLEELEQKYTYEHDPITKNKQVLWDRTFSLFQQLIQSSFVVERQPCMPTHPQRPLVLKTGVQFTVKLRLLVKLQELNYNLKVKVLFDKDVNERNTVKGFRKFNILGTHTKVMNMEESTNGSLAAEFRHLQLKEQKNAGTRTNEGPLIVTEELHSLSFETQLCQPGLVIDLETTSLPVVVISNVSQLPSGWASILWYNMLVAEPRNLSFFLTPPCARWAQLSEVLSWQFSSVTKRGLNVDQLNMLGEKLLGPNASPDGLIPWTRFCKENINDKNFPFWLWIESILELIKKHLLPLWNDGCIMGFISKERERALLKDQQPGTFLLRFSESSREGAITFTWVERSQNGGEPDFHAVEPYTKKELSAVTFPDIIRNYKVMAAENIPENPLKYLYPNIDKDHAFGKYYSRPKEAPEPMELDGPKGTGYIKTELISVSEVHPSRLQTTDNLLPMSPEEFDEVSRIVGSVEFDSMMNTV

[8] = target: Signal transducer and activator of transcription 3 (Homo sapiens) (UniProt P40763); experiment: Inhibition of STAT3 transcriptional activity in human MDA-MB-468 cells at 5 uM incubated for 24 hrs by STAT3-dependent luciferase reporter assay; format: cell-based
[9] = Toxicity in human MDA-MB-468 cells assessed as cell viability at 5 uM incubated for 24 hrs by MTT assay (reference value: 100%); format: cell-based; conditions: read-out: Activity
MDA-MB-231 = experiment: Cytotoxic activity against human MDA-MB-231 cells incubated for 24 hrs by MTT assay; format: functional, cell-based; conditions: MDA-MB-231, 24 h
[10] = target: T2, Signal transducer and activator of transcription 5A (Homo sapiens) (UniProt P42229); experiment: Inhibition of STAT5 Tyr694 phosphorylation in human MDA-MB-468 cells at 5 and 10 uM incubated for 4 hrs by Western blot; format: cell-based
T2 sequence (whole entry): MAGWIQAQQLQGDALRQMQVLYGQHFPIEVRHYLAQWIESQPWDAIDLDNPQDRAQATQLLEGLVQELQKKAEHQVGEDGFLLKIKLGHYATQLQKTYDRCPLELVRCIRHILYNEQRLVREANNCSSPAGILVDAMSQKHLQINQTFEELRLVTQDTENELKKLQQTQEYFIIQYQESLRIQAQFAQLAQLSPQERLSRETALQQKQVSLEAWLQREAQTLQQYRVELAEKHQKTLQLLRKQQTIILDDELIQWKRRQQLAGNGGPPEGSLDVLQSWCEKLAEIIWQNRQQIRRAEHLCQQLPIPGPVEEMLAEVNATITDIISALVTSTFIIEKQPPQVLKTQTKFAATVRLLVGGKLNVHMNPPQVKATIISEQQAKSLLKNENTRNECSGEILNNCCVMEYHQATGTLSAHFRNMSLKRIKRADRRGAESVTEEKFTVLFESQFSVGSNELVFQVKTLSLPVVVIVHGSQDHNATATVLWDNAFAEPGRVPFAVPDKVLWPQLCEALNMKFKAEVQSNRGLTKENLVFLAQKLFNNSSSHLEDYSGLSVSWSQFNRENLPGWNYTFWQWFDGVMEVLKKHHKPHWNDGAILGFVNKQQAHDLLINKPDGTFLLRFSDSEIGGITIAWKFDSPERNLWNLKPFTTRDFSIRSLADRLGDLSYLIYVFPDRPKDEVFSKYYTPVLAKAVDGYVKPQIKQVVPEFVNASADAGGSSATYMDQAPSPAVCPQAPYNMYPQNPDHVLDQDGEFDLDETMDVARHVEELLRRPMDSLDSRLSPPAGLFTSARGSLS

| inhibition [5] | inhibition [6] | inhibition [7] | inhibition [8] | inhibition [10] | Structure (SMILES) | IC50 (MDA-MB-468 [1]) [µM] | IC50 (BT-549) [µM] | viability at 24 h, 10 µM [2] [%] | Activity (MDA-MB-468 [3]) | Activity (MDA-MB-468 [4]) | viability at 24 h, 5 µM [9] [%] | IC50 (MDA-MB-231) [µM] |
| --- | --- | --- | --- | --- | --- | --- | --- | --- | --- | --- | --- | --- |
|  |  |  |  |  | CN[C@@H]1C[C@H]2O[C@@](C)([C@@H]1OC)n1c3ccccc3c3c4c(c5c6ccccc6n2c5c31)C(=O)NC4 [STAUROSPORINE] | 0.15 |  |  |  |  |  |  |
| Dose-dependent effect | inactive | inactive | Active |  | C=C1C(=O)O[C@@H]2CC[C@H](CBr)[C@]12O | 11.8 | 9.63 | 98 | Non-Toxic | Non-Toxic | 100 | 12.1 |
|  |  |  | Active |  | C=C1C(=O)O[C@@H]2CC[C@H](CBr)[C@]12OCC | 7.81 | 5.7 |  |  |  |  | 9.11 |
|  |  |  |  |  | C=C1C(=O)O[C@@H]2CC[C@H](CCl)[C@]12O | > 50 | > 50 |  |  |  |  | > 50 |
|  |  |  | inactive |  | C=C[C@H](C)[C@@H](O)[C@H]1CC[C@H]2CC(=O)C(=C)[C@]21O | > 50 | 39.3 |  |  |  |  | > 50 |
|  |  |  | inactive |  | C=C[C@@H](C)[C@H](O)[C@H]1CC[C@H]2CC(=O)C(=C)[C@]21O | > 50 | > 50 |  |  |  |  | > 50 |
|  |  |  | inactive |  | C=CC[C@@H](O)[C@H]1CC[C@H]2OC(=O)C(=C)[C@@]12O | > 50 | 38.6 |  |  |  |  | > 50 |
|  |  |  | inactive |  | O=C1O[C@@H]2CC[C@@H]3[C@H](O)CC=C1[C@@]32O | > 50 | > 50 |  |  |  |  | > 50 |
|  |  |  | inactive |  | C[C@@H]1C=C2C(=O)O[C@@H]3CC[C@H]([C@H]1O)[C@]23O | > 50 | > 50 |  |  |  |  | > 50 |
|  |  |  | inactive |  | C=C1C(=O)O[C@@H]2CC[C@H](CO)[C@]12OC | > 50 | > 50 |  |  |  |  | > 50 |
|  |  |  | inactive |  | O=C1O[C@@H]2CC[C@@H]3[C@@H](O)CC=C1[C@@]32O | > 50 | > 50 |  |  |  |  | > 50 |
|  |  |  |  |  | C=C1C(=O)O[C@@H]2CC[C@H](CBr)[C@]12OC(C)=O | > 50 | > 50 |  |  |  |  | > 50 |
| Dose-dependent effect | inactive | inactive | Active | inactive | C[C@@H]1C=C2C(=O)O[C@@H]3CC[C@H](C1)[C@]23O | 17.5 | 12.7 | 90 |  | Non-Toxic | 97 | 16.9 |
|  |  |  | inactive |  | C=C1C(=O)C[C@@H]2CC[C@H](CO)[C@]12O | > 50 | 41.1 |  |  |  |  | > 50 |
|  |  |  | inactive |  | C[C@H]1C=C2C(=O)O[C@@H]3CC[C@H](C1=O)[C@]23O | > 50 | > 50 |  |  |  |  | > 50 |
|  |  |  | inactive |  | C=C1C(=O)O[C@@H]2CC[C@H](COC)[C@]12O | > 50 | 37.9 |  |  |  |  | > 50 |
|  |  |  |  |  | C=C1C(=O)O[C@@H]2CC[C@H](CF)[C@]12O | 22.6 | 7.91 |  |  |  |  | 23.4 |
|  |  |  | inactive |  | C=C1C(=O)O[C@@H]2CC[C@H](CO)[C@H]12 | > 50 | > 50 |  |  |  |  | > 50 |
|  |  |  | inactive |  | C=CCC(=O)[C@H]1CC[C@H]2OC(=O)C(=C)[C@@]12O | 42.4 | 25.3 |  |  |  |  | 48.3 |
|  |  |  |  |  | C=C1C(=O)O[C@@H]2CC[C@H](CI)[C@]12O | 23.6 | 17.3 |  |  |  |  | 26 |
|  |  |  |  |  | C=C1C(=O)O[C@@H]2CC[C@H](CBr)[C@H]12 | 42.6 | 24.7 |  |  |  |  | 33.3 |
|  |  |  | inactive |  | C=C1C(=O)O[C@@H]2CC[C@H](COC)[C@]12OC | > 50 | > 50 |  |  |  |  | > 50 |
|  |  |  | inactive |  | C[C@H]1C=C2C(=O)O[C@@H]3CC[C@H]([C@@H]1O)[C@]23O | > 50 | > 50 |  |  |  |  | > 50 |
|  |  |  | inactive |  | C[C@@H]1C(=O)O[C@@H]2CC[C@H](CBr)[C@]12O | > 50 | > 50 |  |  |  |  | > 50 |
| Dose-dependent effect | inactive | inactive | Active |  | C=C1C(=O)O[C@@H]2CC[C@H](CBr)[C@]12OC | 7.91 | 6.61 | 93 | Non-Toxic | Non-Toxic | 98 | 8.63 |
|  |  |  | inactive |  | C=CC[C@H](O)[C@H]1CC[C@H]2OC(=O)C(=C)[C@@]12O | 44.1 | 27.4 |  |  |  |  | 43.6 |
|  |  |  | inactive |  | O=C1O[C@@H]2CC[C@H](CBr)[C@]2(O)[C@]12CO2 | > 50 | > 50 |  |  |  |  | > 50 |
